Data as given in patent publication US9249159B2, “Composition for treating hepatitis C virus, regulating phosphorylation of replicase” (Industry-Academic Cooperation Foundation, Yonsei University, priority 2011, dated 2016).

Experiments:
[1] = system: genotype 1b HCV subgenomic replicon (R-1 cell line); assay: HCV replication (HCV RNA by real-time RT-PCR, NS5B protein by Western blot) in R-1 subgenomic replicon cells; type: cell-based, hepatitis C virus genotype 1b; conditions: R-1 cell
Text: In order to check a PRK2 phosphorylation inhibition effect of the novel inhibitors obtained in Example 1, R-1 cell line harboring HCV subgenomic replicons was used.
The R-1 cell line was comprised of cis-acting RNA elements of 5′ and 3′-end untranslated regions (UTR) essential for replication of HCV RNA, a selection marker inserted to select a replicated RNA into a portion from which a structural protein coding site was removed, and a non-structural protein (NS3-NS5B)-coding gene required for replication. In the replicon, the selection marker was expressed by the HCV 5′-UTR and internal ribosome entry site (IRES) as a part of a coding gene of a core protein as a structural protein and capsid protein, and HCV non-structural proteins were expressed by IRES of EMCV. In order to obtain replicon cells, a HCV subgenomic replicon RNA was obtained by means of in vitro transcription by using a T7 RNA polymerase, free ribonucleotide was removed by using a spin column, and introduced into a hepatocellular carcinoma cell line by electroporation. In the presence of G418, a stable cell line, i.e. a cell line showing a resistance to G418 through replication of HCV subgenome, was obtained. Expression of the HCV non-structural proteins in this cell line was analyzed by Western blot to confirm that replication was being carried out, and the R-1 cell line was constructed. It was observed that an HCV RNA copy number was about 10^7 copies/mL by a quantitative real-time PCR analysis using a TaqMan probe. The R-1 cell line was a cell line in which HCV RNA replication was being carried out, and thus it could be used to evaluate an HCV replication inhibition effect of a PRK2 activity inhibitor.
Then, after the R-1 cell line was treated with each of 5 screened PRK2 inhibitors, HA1077 currently and clinically used as a PRK2 activity inhibitor, and Y27632 having a PRK2 activity inhibition effect at a final concentration of 20 μM for 48 hours, levels of HCV NS5B protein and HCV RNA in cell lysates (50 μg) were analyzed by Western blot and real-time RT-PCR.
To do so, after the two cell lines were treated with the compound #17 at higher concentrations (60 and 100 μM) than 20 μM for 48 hours, an HCV RNA genome level was checked by a real-time RT-PCR analysis. A value was a mean±standard deviation (SD) of three independent measurements. HCV RNA titer was quantified by real-time PCR analysis. Three independent experiments were performed in triplicate.
5 derivatives (#18 to #22: refer to FIG. 2) were produced based on the inhibitor #17 showing the best effect. After the R-1 cell line was treated with each of these inhibitors or HA1077 and Y27632 at a final concentration of 20 μM for 48 hours, an HCV RNA genome level was checked by a real-time RT-PCR analysis and expressed in % with respect to a control treated with DSMO. Three independent experiments were conducted repeatedly three times. Data were expressed by mean±SD of the three experiments.
Total RNA was extracted from R-1 or HCV (JFH1)-infected cells using TRIzol LS reagent (Invitrogen, Carlsbad, Calif., USA) and purified according to the manufacturer's instructions. HCV RNA levels were quantified by RT-PCR using a primer pair and TaqMan probe targeting a region within the HCV 5′-UTR as described previously. Cellular glyceraldehyde-3-phosphate dehydrogenase was used as an internal control. Assays were performed using the DyNAmo Probe 2-step qRT-PCR Kit (Finnzymes, Espoo, Finland) and a CHROMO4 continuous fluorescence detector (Bio-Rad, Hercules, Calif., USA), according to the manufacturer's instructions.
Therefore, anti-HCV activity of 17-DMAG in the R-1 cell was tested at a level lower than 50 nM. To do so, the R-1 cell was treated with a vehicle (0.25% DMSO) or 17-DMAG for 72 hours and the cell lysates (50 μg) and antibodies specific to the proteins were immunoblotted to measure levels of the proteins. An anti-α-tubulin antibody (lower end panel) was used as an internal loading control. […]

PRK2 [2] = biological target: T1, PRK2 (Homo sapiens, UniProt Q16513); assay: PRK2 phosphorylation (Thr816) and PRK2 level in R-1 cells by Western blot; type: cell-based; conditions: R-1 cell, 72 hours
T1 construct: endogenous in cells; host or cells: R-1 (Huh7-derived HCV replicon cells) and Huh7
Protocol: After the R-1 cell line was treated with the PRK2 inhibitor at a final concentration of 10 or 20 μM for 48 hours, phosphorylation or not of Thr^816 residue essential for activity of PRK2 was analyzed by Western blot using a phospho-PRK2 antibody to measure an expression level of phosphorylated PRK2. Immunoblotting using an anti-α-tubulin antibody was carried out to check whether or not the same amount of protein was loaded.
The levels of the proteins were measured by densitometric analysis of immunoblot, and the phosphorylated amounts and relative intensities calculated with respect to PDK1 and PDK2 were converted with respect to α-tubulin signals and then quantitated. As a result of three independent experiments showing similar results, a representative blot picture was illustrated.
Then, in order to check whether or not IFN-α affected a PDK1-PRK2 signaling pathway, the R-1 cell was treated with 100 IU/ml of IFN-α hourly for 6 hours. SDS-PAGE was carried out to the cell lysates, and immunoblotting was carried out. The immunoblotting with anti-α-tubulin antibody was used as an internal control for loading. A representative result from one of the three independent experiments showing a similar result was illustrated.

PDK1 = assay: Steady state level of PDK1 in Huh7 cell by immunoblotting; type: cell-based; conditions: increasing concentration, 48 hours
Text: Total cell lysates from cells treated with inhibitors or IFN-α by using antibodies to PDK1, p-PDK1 (S241), PRK2, and p-PRK2 (T816) (products of Cell Signaling Technology, Inc., Beverly, Mass., USA) was used for immunoblotting. In order to detect PKC isoforms α, β, and γ, a polyclonal antibody to a consensus sequence present in three PKC (protein kinase C) isoforms α, β and γ (anti-pan-PKC; Zymed Laboratories, San Francisco, Calif., USA) was used. An anti-α-tubulin antibody (Oncogene Research Products, Cambridge, Mass., USA) was carried out in immunoblotting for checking whether or not the same amount of protein was loaded.
In order to test whether or not PDK1 in Huh7 as an HCC cell line was destabilized by inhibition of Hsp90, 17-DMAG as a second-generation geldanamycin derivative known as being safer than geldanamycin or its derivative 17-AAG and effective for oral delivery was used (FIG. 8A). The Huh7 cell was treated for 48 hours along with an increase in concentration of 17-DMAG, and a steady state level of PDK1 was evaluated by immunoblotting.

PRK2 [3] = assay: PRK2 level in Huh7 cell by immunoblotting; type: cell-based; conditions: 500 nM, 48 hours

T1 sequence (Q16513 whole entry): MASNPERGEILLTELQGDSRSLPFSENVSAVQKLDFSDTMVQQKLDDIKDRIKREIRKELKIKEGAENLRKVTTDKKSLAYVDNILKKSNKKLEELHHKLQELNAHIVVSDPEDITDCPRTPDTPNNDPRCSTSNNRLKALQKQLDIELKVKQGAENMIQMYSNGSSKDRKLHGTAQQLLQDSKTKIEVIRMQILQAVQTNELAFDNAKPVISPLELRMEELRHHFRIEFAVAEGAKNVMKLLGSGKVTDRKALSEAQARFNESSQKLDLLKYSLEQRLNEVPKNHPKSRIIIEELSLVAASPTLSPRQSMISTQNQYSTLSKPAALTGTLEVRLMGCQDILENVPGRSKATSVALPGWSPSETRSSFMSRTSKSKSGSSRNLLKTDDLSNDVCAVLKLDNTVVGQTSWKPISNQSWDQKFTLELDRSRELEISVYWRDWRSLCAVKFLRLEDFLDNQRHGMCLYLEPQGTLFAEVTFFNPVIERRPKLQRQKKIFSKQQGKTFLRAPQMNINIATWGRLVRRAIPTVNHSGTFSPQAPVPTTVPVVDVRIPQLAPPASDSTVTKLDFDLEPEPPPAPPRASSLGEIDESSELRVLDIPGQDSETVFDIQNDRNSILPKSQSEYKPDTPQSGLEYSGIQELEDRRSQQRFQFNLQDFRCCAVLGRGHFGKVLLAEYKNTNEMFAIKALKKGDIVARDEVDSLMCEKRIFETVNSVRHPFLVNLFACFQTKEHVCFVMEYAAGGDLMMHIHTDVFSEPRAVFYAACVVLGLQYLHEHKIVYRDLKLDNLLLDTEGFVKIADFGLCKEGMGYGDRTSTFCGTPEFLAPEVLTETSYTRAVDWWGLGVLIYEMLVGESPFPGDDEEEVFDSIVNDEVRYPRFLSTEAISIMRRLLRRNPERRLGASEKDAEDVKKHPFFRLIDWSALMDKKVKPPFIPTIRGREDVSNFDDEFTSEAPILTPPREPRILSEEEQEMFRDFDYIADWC

CO[C@H]1/C=C\C=C(/C)C(=O)NC2=CC(=O)C(NCCN(C)C)=C(C[C@@H](C)C[C@H](OC)[C@H](O)[C@@H](C)/C=C(\C)[C@@H]1OC(N)=O)C2=O [17-DMAG, 17-(dimethylaminoethylamino)-17-demethoxygeldanamycin]
decrease in viral RNA ([1]; 50 nM 17-DMAG combined with 100 IU/mL IFN-α, 72 hours): hundredfold
inhibition of HCV RNA replication ([1]; 50 nM, 72 hours): about 50%
inhibition of virus replication ([1]; 17-DMAG 50 nM combined with HA1077 20 μM): approximately 80%
stability of PRK2 (PRK2 [2]; 50 nM): not affected
level of p-PRK2 (PRK2 [2]; 10 or 50 nM): decreased
PDK1 level (PDK1): gradually and significantly decreased
decrease of PRK2 level as compared with non-treated control (PRK2 [3]): about 68%
